Results reported in patent US20080269162A1, “Novel Medicaments for Anti-Retroviral Treatments” (priority 2006, published 2008).
Several values for one entry are separate records, joined by “and”; a condition that tells them apart may be missing. Equal entries are not always repeated.

Legend:
Assay type in all cases: cell-based, HIV
[1] = tested on: NDK (clade D) virus; experiment: RT activity and cell number as a function of the moment of incorporation, NDK virus; conditions: 0.1 μM; for Number of cells, J7: day 7; for Number of cells, J3 / Quantity of RT measured, J3: day 3
From the text: The procedure was the same as that previously indicated with regard to the experiments carried out on MT4 cells; e.g., as in Example 2A.
The results of the measurements done on days 3 and 7 are summarized in Table D; RT activity is expressed in dpm/mL and cells are expressed in 10^6 cells/mL.

[2] = tested on: BRU virus (clade B); experiment: Number of syncitia in MT4 cell culture infected by BRU virus; set-up: key: the absence of syncitia is indicated by a minus (−) sign; the (+), +, ++, ++T signs indicate an increasing number of syncitia in each well; the (+), +, ++, ++T signs indicate an increasing number of syncitia in each well; the (+), +, ++, ++T signs indicate an increasing number of syncitia in each well; the (+), +, ++, ++T signs indicate an increasing number of syncitia in each well; The indication “T” indicates the death of the cells; conditions: 0.01 μM; for Number of Syncitia in the Culture (wells), J3: day 3; for Number of Syncitia in the Culture (wells), J4: day 4; for Number of Syncitia in the Culture (wells), J5: day 5; for Number of Syncitia in the Culture (wells), J6: day 6; for Number of Syncitia in the Culture (wells), J7: day 7
Method: either by the observation, as a function of the quantity of sulphated polysaccharide used and of the time of said use, which can be made before, during or after infection, or even continuously, and of the reduction of the number of syncitia appearing in a culture of MT4 cells following infection by a HIV retrovirus (example 2A),
Then infection of the cells was carried out by adding to each well, with the exception of those wells being used as control cells, 50 μL of previously titrated virus dilution.
After an additional hour of incubation, the plate was centrifuged and the supernatant containing the residual virus was discarded.
After 3 days of culture, the cells were diluted to half and the syncitia were observed using the inverse microscope from day 3 to day 7 after having been placed in suspension.
In the third case, the MT4 cell culture was preincubated for one hour at 37° C., then the cells were infected, the whole was subjected to incubation for one hour at 37° C., then to centrifugation with the elimination of the supernatant containing the virus that had not penetrated into the cells.
The washings and rinsings were done using RPMI without foetal calf serum.
In each of the four types of experiments that have just been described, and as previously indicated, the cells were diluted to half after three days of culture and then the syncitia were observed using the inverted microscope from day 3 to day 7.
In the experiments described in greater detail hereinafter, the absence of syncitia is indicated by a minus (−) sign and the (+), +, ++, ++T signs indicate an increasing number of syncitia in each well.
The indication “T” indicates the death of the cells.
The BRU virus (clade B) was used for infecting the MT4 cells at a viral dilution of 10^5, which corresponds to the quantity of viral particles capable of infecting 80% of the MT4 cultures (Tissue Culture Infections Dose 80%, TCID80%).

[3] = tested on: RTMC virus (clade B), resistant to AZT; experiment: RT activity in supernatant and cell number of CEM cells infected by RTMC virus; conditions: 0.1 μM, RMTC viral dilution 5 · 10^−4
Method: The cells were counted every three days and the cultures diluted with a view of culturing 0.5*10^6 cells/mL; the RT activity assay was done following a protocol comprising:
measurement of the radioactivity of the DNA synthesized, said radioactivity being proportional to the quantity of tritiated thymidine incorporated into said synthesized DNA, which itself is proportional to RT activity and thus to the number of viruses produced by replication.
The contents (1 mL) of each well was centrifuged for 5 minutes at 1500 r.p.m. (Jouan GR 422 centrifuge) and then the culture supernatant obtained was ultracentrifuged at 4° C., 95000 r.p.m. (Beckman TL100 ultracentrifuge) in order to obtain the viral pellet.
The viral pellet was then placed in a test tube containing 10 μL of NTE buffer to which 0.1% of triton was added, which releases the viral enzymes, particularly RT; the tube was then vortexed, covered with parafilm and held for 10 minutes at 4° C. and then frozen at −20° C.
As many test tubes containing this reaction mixture were prepared as there were samples to be tested. […]
The amount of radioactivity that was measured is proportional to the RT activity present and, consequently, to the number of viruses produced by replication. […]

[4] = Continously, before, during and after
[5] = Continuous, before, during and after infection

Substance: 3′-azidothymidine [AZT]
- Number of cells, J7 [1]: 3.2 10^6 Cells/mL and 1.6 10^6 Cells/mL
- Number of cells, J3 ([1]; After infection): 1.2 10^6 Cells/mL and 0.8 10^6 Cells/mL
- Quantity of RT measured, J3 ([1]; After infection): 1249 dpm/mL and 956 dpm/mL
- Number of cells, J7 ([1]; After infection): 1.8 10^6 Cells/mL and 3.2 10^6 Cells/mL
- Number of cells, J3 ([1]; Before infection): 1.4 10^6 Cells/mL and 0.8 10^6 Cells/mL
- Number of cells, J7 ([1]; Before infection): 2 10^6 Cells/mL and 3.8 10^6 Cells/mL
- Number of cells, J3 [1, 4]: 1.7 10^6 Cells/mL and 1.3 10^6 Cells/mL
- Quantity of RT measured, J3 [1, 4]: 399 dpm/mL and 750 dpm/mL
- Number of cells, J7 [1, 4]: 3.6 10^6 Cells/mL and 3.2 10^6 Cells/mL
- Number of cells, J3 ([1]; During dining room): 1.9 10^6 Cells/mL and 1.6 10^6 Cells/mL
- Quantity of RT measured, J3 ([1]; During dining room): 1529 dpm/mL and 956 dpm/mL
- Number of Syncitia in the Culture (wells), J3 ([2]; After infection): −
- Number of Syncitia in the Culture (wells), J4 ([2]; After infection): −
- Number of Syncitia in the Culture (wells), J5 ([2]; After infection): −
- Number of Syncitia in the Culture (wells), J6 ([2]; After infection): −
- Number of Syncitia in the Culture (wells), J7 ([2]; After infection): −
- Number of Syncitia in the Culture (wells), J3 ([2]; Before infection): −
- Number of Syncitia in the Culture (wells), J4 ([2]; Before infection): (+)
- Number of Syncitia in the Culture (wells), J5 ([2]; Before infection): ++ and +
- Number of Syncitia in the Culture (wells), J6 ([2]; Before infection): ++T and ++
- Number of Syncitia in the Culture (wells), J7 ([2]; Before infection): ++T
- Number of Syncitia in the Culture (wells), J3 [2, 5]: −
- Number of Syncitia in the Culture (wells), J4 [2, 5]: −
- Number of Syncitia in the Culture (wells), J5 [2, 5]: −
- Number of Syncitia in the Culture (wells), J6 [2, 5]: −
- Number of Syncitia in the Culture (wells), J7 [2, 5]: −
- Number of Syncitia in the Culture (wells), J3 ([2]; During infection): −
- Number of Syncitia in the Culture (wells), J4 ([2]; During infection): (+)
- Number of Syncitia in the Culture (wells), J5 ([2]; During infection): +
- Number of Syncitia in the Culture (wells), J6 ([2]; During infection): ++
- Number of Syncitia in the Culture (wells), J7 ([2]; During infection): ++T
- Number of cells per mL, D3 ([3]; day 3): 2.7 10^6 Cell/mL and 3.3 10^6 Cell/mL
- Number of cells per mL, D10 ([3]; day 10): 0.4 10^6 Cell/mL and 0.8 10^6 Cell/mL
